Earlier results, collected in patent publication US20130315977A1, “TRANSDERMAL PATCH” (priority 2011, published 2013).

Key:
[1] = molecular target: dopamine D2 (Homo sapiens, UniProt P14416); details: as compared to haloperidol
[2] = test system: serotonin 5-HT2 receptor; details: as compared to haloperidol

Sequence of dopamine D2 (P14416 whole entry): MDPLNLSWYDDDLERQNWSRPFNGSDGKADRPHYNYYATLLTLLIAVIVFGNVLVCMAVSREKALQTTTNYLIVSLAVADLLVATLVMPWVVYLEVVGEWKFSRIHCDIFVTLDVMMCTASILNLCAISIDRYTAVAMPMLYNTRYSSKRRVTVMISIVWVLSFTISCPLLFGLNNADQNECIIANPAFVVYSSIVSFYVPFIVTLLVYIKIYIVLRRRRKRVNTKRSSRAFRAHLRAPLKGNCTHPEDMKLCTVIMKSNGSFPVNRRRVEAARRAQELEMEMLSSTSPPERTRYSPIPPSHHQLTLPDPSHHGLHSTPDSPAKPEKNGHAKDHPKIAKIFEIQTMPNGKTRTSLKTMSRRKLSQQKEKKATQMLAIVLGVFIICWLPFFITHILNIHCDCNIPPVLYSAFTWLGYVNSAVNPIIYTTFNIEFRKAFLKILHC

## CCN1CCN(c2cc(-c3ccc(F)cc3)c3c(n2)CCCCCC3)CC1 [Blonanserin, 2-(4-ethyl-1-piperazinyl)-4-(4-fluorophenyl)-5,6,7,8,9,10-hexahydrocycloocta[b]pyridine]
[1]
  affinity for dopamine D2: high affinity
[2]
  affinity for serotonin 5-HT2 receptor: high affinity
